Common to all, as to test: Chemosensitivity, 96 h continuous exposure, MTT assay
What all share (format): cell-based, human
In general terms: Tetrazolium assays rely on reduction of a dye to a coloured formazan, in cell work by metabolically active cells.

The test system of one experiment is ARPE-19 non-cancer cells. An excerpt:
(§1) All cell lines were purchased from and maintained as monolayers as described by the American Type Culture Collection with the exception of the p53^+/+ and p53^−/− isogenic clones of HCT116 human colorectal adenocarcinoma cells which were a kind gift from Professor Bert Vogelstein[54]. GBM1 cells were established from a primary GBM tumour by Heiko Wurdak and colleagues[32],[33]. Non-cancerous adult brain neural progenitor (NP1) cells were derived from a patient undergoing surgery to treat epilepsy[32],[33]. Cell culture and growth media for NP1 and GBM1 cells were as described[32],[33]. The response of cells following a continuous 96-h exposure to test compounds and platinates was determined using the MTT assay. Potency was recorded as the IC50 and the selectivity index (SI) was defined as the ratio of IC50 values for non-cancer to cancer cell lines with values >1 representing selectivity for cancer cells as opposed to non-cancer cells.
(§2) All cell lines used were maintained at low passage in antibiotic-free media. HT29, DLD-1, HCT116 p53^+/+ and HCT116 p53^−/− are all colorectal adenocarcinoma cell lines derived from different individuals and harbour different combinations of oncogenic lesions (except for the HCT116 isogenic cancer cell clones that are genetically identical except for p53 status). PSN-1, BxPC-3 and MiaPaCa2 are pancreatic carcinoma cell lines and A549 and H460 are lung carcinoma cell lines. HT29, DLD-1, PSN-1, BxPC-3, A549 and H460 cell lines were cultured in RPMI-1640 growth media (Sigma) containing 2 mM L-glutamine, 1 mM sodium pyruvate and 10% foetal bovine serum (FBS). HCT116 (p53^+/+ and p53^−/−) and MiaPaCa2 cell lines were cultured in Dulbecco’s Modified Eagle’s Medium (Sigma), 2 mM L-glutamine and 10% FBS. The ARPE-19 retinal epithelial non-cancer cell line was cultured in DMEM/F12 media (Gibco), 2 mM L-glutamine, 1 mM sodium pyruvate and 10% FBS. The MCF10A non-cancerous human breast epithelial cell line was cultured in Minimal Essential Media Eagle (Sigma), 2 mM L-glutamine, 1 mM sodium pyruvate, 10% FBS and 1x non-essential amino acids (NEAA). NP1 and GBM1 cells were cultured on plasticware coated with poly-L-ornithine (5 µg/ml) and laminin (2.4 µg/ml)[32],[33]. NP1 cells were grown in DMEM/F12 media (Gibco) supplemented with 5% FBS, 20 ng/ml hFGF, 20 ng/ml rhEGF, 0.5x B-27 supplement (Gibco), 0.5x N-2 supplement (Gibco) and 1x GLUTAMAX (Gibco). GBM1 cells were cultured in Neurobasal media (Gibco) supplemented with 40 ng/ml hFGF, 40 ng/ml rhEGF, 0.5x B-27 supplement (Gibco) and 0.5x N-2 supplement (Gibco).
(§3) [L2(Metal)3]^6+ and all the other self-assembling complexes were freshly formed by adding DMSO to individual components and mixing together by pipetting. These were then further diluted in cell culture media such that the final DMSO concentration that cells were exposed to was 0.2% (vehicle control). Cisplatin, oxaliplatin and carboplatin were dissolved in phosphate buffered saline. Cell lines were seeded into 96 well plates at 2 × 10^3 cells per well and incubated overnight at 37 °C. GBM1 cancer stem-like cells were seeded at 3 × 10^3 cells per well and NP1 neural progenitors were seeded at 1.5 × 10^3 cells per well. The following day, media was removed and replaced with fresh media containing test compounds at a range of concentrations. Cells were incubated with test compounds for a further 96 h after which the media was removed and replaced with fresh media (200 μl/well). MTT was added (20 μl at 5 mg/ml) and cells were incubated for a further 4 h. Media and MTT were removed and formazan crystals were dissolved in 150 μl of DMSO and the absorbance of the resulting solution determined at 540 nm. Dose response curves were constructed, and the concentration required to reduce cell growth by 50% (IC50) determined.

The next experiment concerns HCT116 p53+/+. Conditions: for SI (ARPE19): mean IC50 ARPE-19 / mean IC50 HCT116 p53+/+; for Selectivity index (ARPE19): IC50 ARPE-19 / IC50 HCT116 p53+/+.
Description: as §1, §2, §3

The test system of the next experiment is HCT116 p53-/-. The settings on record: for SI (ARPE19): mean IC50 ARPE-19 / mean IC50 HCT116 p53-/-; for Selectivity index (ARPE19): IC50 ARPE-19 / IC50 HCT116 p53-/-.
Description: as §1, §2, §3

The subject of the next experiment is MiaPaCa2. Conditions: for IC50: MiaPaCa2, 96 h, MTT; for SI (ARPE19): mean IC50 ARPE-19 / mean IC50 MiaPaCa2.
Description: as §1, §2, §3

The mark [1] stands for this setting: ARPE-19, 96 h, MTT, individual run, read-out: IC50 values for each replicate.
The mark [2] stands for this setting: ARPE-19, 96 h, MTT, mean of at least 3 independent experiments, read-out: Mean IC50.
[3] abbreviates: HCT116 p53+/+, 96 h, MTT, individual run, read-out: IC50 values for each replicate.
Where [4] appears, read: HCT116 p53+/+, 96 h, MTT, mean of at least 3 independent experiments, read-out: Mean IC50.
The mark [5] stands for this setting: HCT116 p53-/-, 96 h, MTT, individual run, read-out: IC50 values for each replicate.
Setting [6] is: HCT116 p53-/-, 96 h, MTT, mean of at least 3 independent experiments, read-out: Mean IC50.
Where [7] appears, read: individual run, read-out: IC50 values for each replicate.
Where [8] appears, read: mean of at least 3 independent experiments, read-out: Mean IC50.
Setting [9] is: ARPE19, individual replicate experiments, read-out: IC50 values.
The mark [10] stands for this setting: HCT116 p53+/+, individual replicate experiments, read-out: IC50 values.
[11] abbreviates: HCT116 p53-/-, individual replicate experiments, read-out: IC50 values.
Setting [12] is: ARPE-19 non-cancer, read-out: Mean IC50 values.
[13] abbreviates: HCT116 p53+/+, read-out: Mean IC50 values.
The mark [14] stands for this setting: HCT116 p53-/-, read-out: Mean IC50 values.

“And” between values parts separate entries of the source, which are not always exact repeats. Identical values can stand only once. Like-named read-outs stand apart in the source and are kept apart here.

For `N.N.O=C([O-])C1(C(=O)[O-])CCC1.[Pt+2]` [Carboplatin, carboplatin, reference compound], the IC50 with ARPE-19 non-cancer cells (setting [1]) is 87.6 µM and 79 µM and 66.6 µM; with ARPE-19 non-cancer cells (setting [2]), 77.7 µM; with HCT116 p53+/+ (setting [3]) it was 43.3 µM and 21 µM and 32.9 µM; in the experiment with HCT116 p53+/+ (setting [4]), 32.4 µM; in the experiment on HCT116 p53-/- (setting [5]), 45.8 µM and 28.2 µM and 33.1 µM; with HCT116 p53-/- (setting [6]), 35.7 µM. The IC50 in the experiment on MiaPaCa2 (setting [7]) was 30.3 µM and 44.7 µM and 31.8 µM; with MiaPaCa2 (setting [8]), 35.6 µM. The “SI (ARPE19)” value in the experiment with HCT116 p53+/+ was 2.401; in the experiment with HCT116 p53-/- it was 2.177; in the experiment with MiaPaCa2, 2.184.
Take `N.N.[Cl][Pt][Cl]` [Cisplatin, cisplatin, reference compound]: the IC50 was 6.07 µM and 7.48 µM and 5.69 µM with ARPE-19 non-cancer cells (setting [1]); 6.41 µM with ARPE-19 non-cancer cells (setting [2]); 2.84 µM and 3.35 µM and 3.58 µM in the experiment on HCT116 p53+/+ (setting [3]); 3.26 µM with HCT116 p53+/+ (setting [4]); 7.14 µM and 7.16 µM and 8.27 µM with HCT116 p53-/- (setting [5]); 7.52 µM in the experiment with HCT116 p53-/- (setting [6]). In addition, the IC50 with MiaPaCa2 (setting [7]) was 3.69 µM and 2.84 µM and 4.32 µM; in the experiment on MiaPaCa2 (setting [8]), 3.62 µM. The entries for the “SI (ARPE19)” value in the experiment with HCT116 p53+/+, in the experiment on HCT116 p53-/- and in the experiment with MiaPaCa2 were 1.966, 0.852 and 1.771, respectively.
For the compound `c1ccc(-c2csc(NCCN(CCNc3nc(-c4ccccc4)cs3)CCNc3nc(-c4ccccc4)cs3)n2)cc1` [L], the IC50 is 4.96 µM and 6.38 µM with ARPE-19 non-cancer cells (setting [9]); 4.89 µM in the experiment on ARPE-19 non-cancer cells (Homo sapiens, ARPE-19, ARPE19, individual replicate experiments, read-out: IC50 values); 5.41 µM in the experiment on ARPE-19 non-cancer cells (Homo sapiens, ARPE-19, ARPE-19 non-cancer, read-out: Mean IC50 values); 0.173 µM and 0.524 µM and 0.141 µM with HCT116 p53+/+ (setting [10]); 0.279 µM with HCT116 p53+/+ (Homo sapiens, HCT-116, HCT116 p53+/+, read-out: Mean IC50 values); 0.074 µM and 0.081 µM in the experiment on HCT116 p53-/- (setting [11]). Besides, the half-maximal inhibitory concentration (IC50) with HCT116 p53-/- (Homo sapiens, HCT-116, HCT116 p53-/-, individual replicate experiments, read-out: IC50 values) came out at 0.054 µM; with HCT116 p53-/- (Homo sapiens, HCT-116, HCT116 p53-/-, read-out: Mean IC50 values) it was 0.07 µM. Moreover, the “Selectivity index (ARPE19)” value in the experiment with HCT116 p53+/+ was 19.369 and 19.36; in the experiment with HCT116 p53-/-, 77.506.
`O=C1[O][Pt]2([NH][C@@H]3CCCC[C@H]3[NH]2)[O]C1=O` [Oxaliplatin, oxaliplatin, reference compound]: the IC50 with ARPE-19 non-cancer cells (setting [1]) was 2.83 µM and 3.1 µM and 3.39 µM; in the experiment on ARPE-19 non-cancer cells (setting [2]), 3.12 µM; with HCT116 p53+/+ (setting [3]), 1.05 µM and 0.89 µM and 0.84 µM; in the experiment on HCT116 p53+/+ (setting [4]) it was 0.93 µM; in the experiment on HCT116 p53-/- (setting [5]), 5.46 µM and 2.46 µM and 3.06 µM; with HCT116 p53-/- (setting [6]) it was 3.67 µM. Also, the IC50 is 5.23 µM and 7.06 µM and 7.02 µM in the experiment with MiaPaCa2 (setting [7]); 6.44 µM with MiaPaCa2 (setting [8]). Also, the “SI (ARPE19)” value in the experiment with HCT116 p53+/+ is given as 3.355; with HCT116 p53-/-, 0.850; with MiaPaCa2, 0.484.
As to `[Cu+2].c1ccc(-c2csc(NCCN(CCNc3nc(-c4ccccn4)cs3)CCNc3nc(-c4ccccn4)cs3)n2)nc1` [[LCu]2+], the concentration for half-maximal inhibition (IC50) with ARPE-19 non-cancer cells (setting [9]) was 5.93 µM and 5.5 µM and 6.33 µM; with ARPE-19 non-cancer cells (setting [12]), 5.92 µM; in the experiment on HCT116 p53+/+ (setting [10]) it was 0.512 µM and 0.583 µM and 0.251 µM; in the experiment on HCT116 p53+/+ (setting [13]), 0.449 µM; with HCT116 p53-/- (setting [11]), 0.049 µM and 0.045 µM and 0.083 µM; in the experiment on HCT116 p53-/- (setting [14]), 0.059 µM. Besides, the “Selectivity index (ARPE19)” value was 13.19 with HCT116 p53+/+ and 100.09 in the experiment on HCT116 p53-/-.
On to `[Zn+2].c1ccc(-c2csc(NCCN(CCNc3nc(-c4ccccn4)cs3)CCNc3nc(-c4ccccn4)cs3)n2)nc1` [[LZn]2+], for which the IC50 with ARPE-19 non-cancer cells (setting [9]) is 5.39 µM and 4.76 µM and 5.09 µM; in the experiment with ARPE-19 non-cancer cells (setting [12]), 5.08 µM; with HCT116 p53+/+ (setting [10]), 0.483 µM and 0.549 µM and 0.244 µM; with HCT116 p53+/+ (setting [13]), 0.425 µM; in the experiment on HCT116 p53-/- (setting [11]) it was 0.054 µM and 0.063 µM and 0.087 µM; in the experiment on HCT116 p53-/- (setting [14]), 0.068 µM. Moreover, the “Selectivity index (ARPE19)” value in the experiment with HCT116 p53+/+ is recorded as 11.94; in the experiment with HCT116 p53-/-, 74.47.

One may read the IC50 as the concentration needed to halve the response being measured.

The values are drawn from publication PMC8222254, “Self-assembly of an anion receptor with metal-dependent kinase inhibition and potent in vitro anti-cancer properties” (Nature Communications, 2021).
